The values below come from patent publication US20250154163A1, “Pyrimidinone-Containing 17-Beta-Hydroxysteroid Dehydrogenase Type 13 Inhibitors” (ENANTA PHARMACEUTICALS, INC., priority 2023, published 2025).

Test [1] has as its target T1, human HSD17β13 (stable HEK293T cell line overexpressing human HSD17β13) (Homo sapiens, UniProt Q7Z5P4).
T1 construct: expressed in transfected cells
T1 sequence (Q7Z5P4 20-300): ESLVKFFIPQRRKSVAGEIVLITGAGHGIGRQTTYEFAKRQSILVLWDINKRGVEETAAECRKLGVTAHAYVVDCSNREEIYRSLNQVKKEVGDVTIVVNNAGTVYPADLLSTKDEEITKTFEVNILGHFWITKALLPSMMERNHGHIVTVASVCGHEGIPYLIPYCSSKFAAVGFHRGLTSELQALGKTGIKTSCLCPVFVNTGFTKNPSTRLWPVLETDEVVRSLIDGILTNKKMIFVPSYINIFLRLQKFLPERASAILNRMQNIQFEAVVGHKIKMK
The experiment in a line: HSD17β13 inhibitor cell-based screening assay (conversion of estradiol-d2 to estrone-d2 by RF-MS). The following applies: conversion of estradiol-d2 to estrone-d2 after 24 hours. Summed up: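 Cellular IC50 is based on 24-h conversion of estradiol-d2 (5 μM final) to estrone-d2, measured by RF-MS in acetonitrile-precipitated supernatants. Assay uses human HSD17β13-overexpressing HEK293T cells (7.5E3/well, 1% charcoal/dextran FBS MEM), with compounds dosed as a 9-point 1:3 series to 10 μM final. ATPlite luminescence on overexpressing and parent lines measured viability.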

The subject of test [2] is human precision cut lung slices from a normal donor treated with fibrotic cocktail. As to the kind of experiment: Human precision cut lung slice (PCLS) culture, normal donor treated with fibrotic cocktail. The format is cell-based. The settings on record: normal donor PCLS treated 8 days with pro-fibrotic cocktail (FC); FIG. 2a, FIG. 3. Here is the method:
Human PCLS were generated from lung explants of patients with pulmonary fibrosis (donor ID #221028) or normal donor (donor ID #220730). Cryopreserved hPCLSs were obtained from Institute for In Vitro Sciences (IIVS) and maintained with air-liquid interface culture approach under 37° C., 5% CO2 and 95% humidity. hPCLS were cultured in DMEM-F12 (Invitrogen, Cat No. 11330032) containing 0.2% primocin (Invivogen, Cat No. ant-pm-1) and 1% insulin-transferrin-selenium (ITS-G; Invitrogen, Cat No. 41400045), after initial acclimation in acclimation media, including culture media supplemented with 1% antibiotic antimycotic solution (Invitrogen, Cat No. 15240062), 2 mM Hydrocortisone (Millipore Sigma,) and 5 mg/ml 2-phospho-L-abscorbic acid trisodium salt (Millipore Sigma, Cat No. 49752-10G) for 3 days. Slices of tissue were flatly grown in the tissue culture inserts with 0.4 μm pores of a 12-well plate (StemCell Technologies, Cat No. 1001027), supplemented with 100 μl culture media in the apical side containing PCLSs, and 900 μL culture media in the basal compartment. Media were changed every 48 hours. hPCLS were treated and randomly assigned in replicates of 6-8 per condition 7 days after recovery from cryopreservation. […] IPF donor PCLS were collected at day 8 for subsequent RNA isolation and gene expression quantification. […]

Usually IC50 stands for the concentration that gives 50% inhibition. Low readings indicate greater potency, high ones weaker potency. As for `COc1ccc(-c2nc3sc4c(O)c(Cl)ccc4c3c(=O)n2Cc2cnco2)c(C2CC2)c1` [Example 26, 7-chloro-2-(2-cyclopropyl-4-methoxyphenyl)-8-hydroxy-3-(oxazol-5-ylmethyl)benzo[4,5]thieno[2,3-d]pyrimidin-4(3H)-one], in test [1], the IC50 was below 100 nM. In test [2], the “collagen (COL1A1) mRNA expression” value is “decreased”.
The corresponding values for `CS(=O)(=O)c1ccc(-c2nc3sc4c(O)c(Cl)ccc4c3c(=O)n2Cc2cnc(C(F)(F)F)nc2)c(C2CC2)c1` [Example 64, 7-chloro-2-(2-cyclopropyl-4-(methylsulfonyl)phenyl)-8-hydroxy-3-((2-(trifluoromethyl)pyrimidin-5-yl)methyl)benzo[4,5]thieno[2,3-d]pyrimidin-4(3H)-one] are below 100 nM and “decreased”.
